Reference: US20250288704A1, “CXCR4-LIGANDS FOR DIAGNOSTIC AND THERAPEUTIC USE AND PRECURSORS THEREOF” (priority 2021, published 2025)
Like-named read-outs stand apart in the source and are kept apart here. Starred links: 1 amine or outer side, 2 acyl side, 3 side chain; linkers in the order of their positions; H or OH if unused. Positions of bridges follow the written chain, without caps; N, C: chain ends. Non-standard residues stand in square brackets, D forms with d. Residues, ends and D or L forms follow the SMILES beside them. Groups on a side chain read outwards from the residue. Chains are numbered I, II in the order given. *: point of attachment. X7 = O=C(O)CN1CCN(CC(=O)O)CCN([C@H](CCC(=O)*)C(=O)O)CCN(CC(=O)O)CC1; Benzoyl(4-SiFtBu2) = CC(C)(C)[Si](F)(c1ccc(C(=O)*)cc1)C(C)(C)C; DOTA = O=C(O)CN1CCN(CC(=O)O)CCN(CC(=O)*)CCN(CC(=O)O)CC1; d(γGlu) = O=C(O)[C@@H](CCC(=O)[*:2])N[*:1]; dTyr(3-I) = N[C@H](Cc1ccc(O)c(I)c1)C(=O)O; 2Nal = N[C@@H](Cc1ccc2ccccc2c1)C(=O)O; dNMeOrn = CN[C@H](CCCN)C(=O)O; 4Amb = NCc1ccc(C(=O)O)cc1; 4Abz = Nc1ccc(C(=O)O)cc1; dDap = NC[C@@H](N)C(=O)O; CO = O=C([*:1])[*:2]; Ahx = NCCCCCC(=O)O

Key:
CXCR4 = CXCR4 (Homo sapiens, UniProt P61073); assay: Determination of IC50: competition with 125I-Fc-131 on CXCR4-positive Jurkat cells; type: binding; design: CXCR4-positive Jurkat T lymphocyte cells were grown in Gibco's RPMI 1640 GlutaMAX medium; endogenous in cells; host or cells: Jurkat T lymphocyte cells (whole cells in suspension, 400.000 per tube);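 further: test compound at 10^−5 to 10^−11 M competed for 2 h at 8 °C with the radioligand on 400,000 cells per well, bound versus free activity measured by γ-counting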
Sequence of CXCR4 (P61073 whole entry): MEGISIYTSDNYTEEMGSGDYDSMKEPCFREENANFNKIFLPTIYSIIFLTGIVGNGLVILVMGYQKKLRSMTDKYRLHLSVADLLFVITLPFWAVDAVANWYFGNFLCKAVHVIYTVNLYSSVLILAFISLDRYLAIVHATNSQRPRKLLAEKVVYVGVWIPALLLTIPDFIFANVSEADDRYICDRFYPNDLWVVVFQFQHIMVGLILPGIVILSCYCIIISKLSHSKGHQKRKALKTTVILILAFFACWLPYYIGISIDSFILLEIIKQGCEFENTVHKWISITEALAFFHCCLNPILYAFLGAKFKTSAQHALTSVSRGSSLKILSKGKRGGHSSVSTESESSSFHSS
Procedure: For in vitro experiments, cells were counted in a hemocytometer using trypan blue as contrast agent. The cell suspension was centrifuged, and the pellet resuspended in HBSS (+1 wt % BSA) to a concentration of 2 mio cells/mL. […] 200 μL of cell suspension (400.000 cells per well) were added to obtain a final peptide concentration range of 10^−5-10^−11 M. The tubes were cooled for 2 h at 8° C. to prevent internalization. The experiment was stopped by removal of the supernatant. 200 μL HBSS were added onto the cells, the suspension centrifuged, and the supernatant pooled with the respective first fractions. This step was repeated once more before the tubes containing the supernatants and the ones containing the cell pellets were subjected to activity measurement in the γ-counter.

[1] = tested on: CXCR4-expressing Chem_1 cells; assay: Determination of internalization, dual tracer with 125I-Fc-131; type: cell-based; details: for Cell-bound [%] / Internalized [%]: of total cellular activity; for Internalization [% Fc-131] 2 h: 177Lu-labeled
In short: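 Receptor blockade used AMD3100 (1 mM stock) versus medium-treated wells, triplicate per time point, in Chem_1 cells cultured at 37 °C in DMEM-F12/10% FBS. Activity of supernatant, surface-bound and internalized (1 M NaOH) fractions measured by γ-counter, corrected for non-specific uptake and normalised to standard ligand.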

[2] = Octanol/PBS partition coefficient (logD7.4); type: physicochemical; details: n-octanol/PBS pH 7.4, radiolabeled compound
Procedure: The tubes were vortexed at maximum speed for 3 min to ensure equilibrium before centrifugation at 15.000×g for 5 min on a Biofuge 15 from Heraeus Holding GmbH (Osterode, Germany). An aliquot of 100 μL of each fraction was measured in the γ-counter and the log D7.4 calculated as follows: […]

[3] = Biodistribution in Jurkat tumor-bearing CB-17 SCID mice; type: in vivo; details: female, CB-17 SCID, mouse, in vivo, iv, total radioactivity
Procedure: All animal experiments were conducted in accordance with general animal welfare regulations in Germany and the institutional guidelines for the care and use of animals. To establish tumor xenografts, Jurkat cells (2-3×10^7 cells) were suspended in a mixture of Gibco's RPMI 1640 medium and Matrigel (1/1; v/v) from BD Biosciences (Heidelberg, Germany), and inoculated subcutaneously onto the right shoulder of 6-10 weeks old CB17-SCID mice from either Charles River GmbH (Sulzfeld, Germany) or the in-house mouse breeding facility. Mice were used when tumors had grown to a diameter of 5-8 mm (4-10 weeks after inoculation).
Approximately 0.5-20 MBq (0.02-0.20 nmol) of the ^125I-, ^177Lu-, ^99mTc-, ^18F- or ^68Ga-labeled ligand were injected into the tail vein of Jurkat tumor-bearing CB-17 SCID mice and the animals sacrificed after the respective biodistribution time. Selected organs were removed, weighted and measured in a γ-counter.

[4] = unlabeled or cold (natGa/natLu) compound vs 125I-Fc-131, Jurkat cells
[5] = unlabeled or cold (natGa/natLu) compound vs 125I-Fc-131, Jurkat cells, read-out: IC50

SMILES	IC50 (CXCR4; [4])	Internalized in relation to 125I-Fc-131 [%] ([1]; 30 min)	Cell-bound [%] ([1]; 30 min)	Internalized [%] ([1]; 30 min)	Internalization [% Fc-131] ([1]; 90 min)	Internalized in relation to 125I-Fc-131 [%] ([1]; 90 min)	Cell-bound [%] ([1]; 90 min)	Internalized [%] ([1]; 90 min)	logD7.4 [2]	IC50 (CXCR4; [5])	Internalized in relation to 125I-Fc-131 [%] ([1]; 15 min)	Cell-bound [%] ([1]; 15 min)	Internalized [%] ([1]; 15 min)	Internalized in relation to 125I-Fc-131 [%] ([1]; 60 min)	Cell-bound [%] ([1]; 60 min)	Internalized [%] ([1]; 60 min)	Internalized in relation to 125I-Fc-131 [%] ([1]; 120 min)	Internalization [% Fc-131] 2 h ([1]; 2 h)	Cell-bound [%] ([1]; 120 min)	Internalized [%] ([1]; 120 min)	also measured
C[C@@H](NC(=O)[C@@H](CCCNC(=N)N)NC(=O)[C@@H](CN)NC(=O)CCCCCNC(=O)[C@@H](CNC(=O)CC[C@H](C(=O)O)N1CCN(CC(=O)O)CCN(CC(=O)O)CCN(CC(=O)O)CC1)NC(=O)C[N+](C)(C)Cc1ccc([Si](F)(C(C)(C)C)C(C)(C)C)cc1)C(=O)Nc1ccc(C(=O)NCCC[C@@H]2C(=O)N[C@@H](CCCNC(=N)N)C(=O)N[C@@H](Cc3ccc4ccccc4c3)C(=O)NCC(=O)N[C@H](Cc3ccc(O)cc3)C(=O)N2C)cc1 [CXCR4-SiFA-6 [Ga]]	5.52 ± 0.71 nM	829 ± 48.1%	0 ± 0.29%	37.0 ± 1.06%	980 % Fc-131	980 ± 85.6%	0.81 ± 0.14%	48.1 ± 1.26%	−1.05 ± 0.06 (8)	–	–	–	–	–	–	–	–	–	–	–	–
C[C@@H](NC(=O)[C@@H](CCCNC(=N)N)NC(=O)[C@@H](CN)NC(=O)CN1CCN(CC(=O)O)CCN(CC(=O)O)CCN(CC(=O)O)CC1)C(=O)NCc1ccc(C(=O)NCCC[C@@H]2C(=O)N[C@@H](CCCNC(=N)N)C(=O)N[C@@H](Cc3ccc4ccccc4c3)C(=O)NCC(=O)N[C@H](Cc3ccc(O)c(I)c3)C(=O)N2C)cc1 [CXCR4-DOTA-2 [Lu]] (cyclo([dTyr(3-I)][dNMeOrn]([4Amb-dA-dR-dDap-DOTA])R[2Nal]G))	–	347 ± 36.1%	13.5 ± 1.38%	17.8 ± 2.02%	–	–	–	–	−2.20 ± 0.06 (8)	6.47 ± 1.75 nM	247 ± 26.2%	8.31 ± 1.20%	11.2 ± 1.93%	368 ± 36.9%	16.4 ± 1.31%	21.8 ± 1.10%	456 ± 76.3%	456 % Fc-131	22.2 ± 2.68%	27.3 ± 3.62%	tissue uptake at 1 h ([3]; % iD/g Blood): 1.67 %ID/g; tissue uptake at 1 h ([3]; % iD/g Bone): 0.9 %ID/g; tissue uptake at 1 h ([3]; % iD/g Heart): 1.04 %ID/g; tissue uptake at 1 h ([3]; % iD/g Intestine): 0.9 %ID/g; tissue uptake at 1 h ([3]; % iD/g Kidney): 15.7 %ID/g; tissue uptake at 1 h ([3]; % iD/g Liver): 17.7 %ID/g; tissue uptake at 1 h ([3]; % iD/g Lung): 2.94 %ID/g; tissue uptake at 1 h ([3]; % iD/g Muscle): 0.3 %ID/g; tissue uptake at 1 h ([3]; % iD/g Pancreas): 0.53 %ID/g; tissue uptake at 1 h ([3]; % iD/g Spleen): 3.62 %ID/g; tissue uptake at 1 h ([3]; % iD/g Stomach): 1.41 %ID/g; tissue uptake at 1 h ([3]; % iD/g Tumor): 5.27 %ID/g
C[C@@H](NC(=O)[C@@H](CCCNC(=N)N)NC(=O)[C@@H](CN)NC(=O)CN1CCN(CC(=O)O)CCN(CC(=O)O)CCN(CC(=O)O)CC1)C(=O)NCc1ccc(C(=O)NCCC[C@@H]2C(=O)N[C@@H](CCCNC(=N)N)C(=O)N[C@@H](Cc3ccc4ccccc4c3)C(=O)NCC(=O)N[C@H](Cc3ccc(O)cc3)C(=O)N2C)cc1 [CXCR4-DOTA-1 [Lu]] (cyclo([dY][dNMeOrn]([4Amb-dA-dR-dDap-DOTA])R[2Nal]G))	–	95.0 ± 9.39%	4.43 ± 0.08%	3.28 ± 0.27%	–	–	–	–	−3.41 ± 0.05 (6)	5.05 ± 1.75 nM	78.3 ± 6.93%	4.27 ± 0.38%	2.61 ± 0.20%	109 ± 24.6%	6.02 ± 0.67%	5.04 ± 0.92%	133 ± 7.31%	133 % Fc-131	4.97 ± 0.31%	7.08 ± 0.22%	–
C[C@@H](NC(=O)[C@@H](CCCNC(=N)N)NC(=O)[C@@H](CN)NC(=O)CCCCCNC(=O)[C@@H](CNC(=O)CC[C@H](C(=O)O)N1CCN(CC(=O)O)CCN(CC(=O)O)CCN(CC(=O)O)CC1)NC(=O)[C@@H](CNC(=O)c1ccc([Si](F)(C(C)(C)C)C(C)(C)C)cc1)NC(=O)CC[C@@H](NC(=O)N[C@H](CCC(=O)O)C(=O)O)C(=O)O)C(=O)Nc1ccc(C(=O)NCCC[C@@H]2C(=O)N[C@@H](CCCNC(=N)N)C(=O)N[C@@H](Cc3ccc4ccccc4c3)C(=O)NCC(=O)N[C@H](Cc3ccc(O)cc3)C(=O)N2C)cc1 [CXCR4-SiFA-5 [Ga]] (I: {dE-CO-d(γGlu)}-[dDap](Benzoyl(4-SiFtBu2))[dDap](X7)[Ahx][dDap][dR][dA][4Abz] / II: cyclo([dY][dNMeOrn]R[2Nal]G); amide I:C-II:2)	36.5 ± 4.51 nM	233 ± 44.1%	0.66 ± 0.22%	3.46 ± 0.57%	209 % Fc-131	209 ± 27.2%	0.72 ± 0.34%	3.70 ± 0.41%	−1.85 ± 0.07 (7)	–	–	–	–	–	–	–	–	–	–	–	–
CC[C@H](C)[C@@H]([C@@H](CC(=O)N1CCC[C@H]1[C@H](OC)[C@@H](C)C(=O)N[C@H](C)[C@@H](O)c1ccccc1)OC)N(C)C(=O)[C@@H](NC(=O)[C@H](C(C)C)N(C)C(=O)OCc1ccc(NC(=O)[C@H](CCCNC(N)=O)NC(=O)[C@@H](NC(=O)CCCCCN2C(=O)CC(SCC[C@@H](N)C(=O)N[C@H](Cc3c[nH]cn3)C(=O)N[C@H](CCCNC(=N)N)C(=O)N[C@H](C)C(=O)Nc3ccc(C(=O)NCCC[C@@H]4C(=O)N[C@@H](CCCNC(=N)N)C(=O)N[C@@H](Cc5ccc6ccccc6c5)C(=O)NCC(=O)N[C@H](Cc5ccc(O)cc5)C(=O)N4C)cc3)C2=O)C(C)C)cc1)C(C)C (stereo partly drawn) [CXCR4-MMAE-3]	–	–	–	–	–	–	–	–	0.80 ± 0.12 (6)	–	–	–	–	–	–	–	–	–	–	–	IC50 (CXCR4): 43.9 ± 6.18 nM; Internalization 2 h [% of bound peptide] ([1]; 2 h, 125I-labeled): 24.9 ± 0.85 % of bound peptide
